Measured values from patent US10004701B2, “Methods and compositions for treating infection” (UNIVERSITY OF ROCHESTER, priority 2012, dated 2018).
Counter-ions that a name gives are not always drawn. Like-named read-outs stand apart in the source and are kept apart here.

Tests used:
Assay in all cases: AK assay 384-well format, Prestwick library screening
P. aeruginosa = format: cell-based, Pseudomonas aeruginosa; settings: for fold induction at 50 µM: Pseudomonas aeruginosa, 3 h
E. faecium = format: cell-based, Enterococcus faecium; settings: for fold induction at 50 µM: Enterococcus faecium, 3 h
[1] = tested on: A. baumannii strain 98-37-09; format: cell-based, Acinetobacter baumannii; settings: for fold induction at 50 µM: Acinetobacter baumannii, 983709, 3 h
E. coli = format: cell-based, Escherichia coli; settings: for fold induction at 50 µM: Escherichia coli, 3 h
E. cloacae = format: cell-based, Enterobacter cloacae; settings: for fold induction at 50 µM: Enterobacter cloacae, 3 h
[2] = tested on: S. aureus strain USA300-0114; format: cell-based, Staphylococcus aureus; settings: for fold induction at 50 µM: Staphylococcus aureus, USA300, 3 h
K. pneumoniae = format: cell-based, Klebsiella pneumoniae; settings: for fold induction at 50 µM: Klebsiella pneumoniae, 3 h
[3] = 50 μM final drug concentration, 384-well format, cutoff for positive-scoring molecules 3-fold increase, read-out: AK-based Prestwick Library Screening Results, P. aeruginosa (increase in extracellular AK activity)
[4] = 50 μM final drug concentration, 384-well format, cutoff for positive-scoring molecules 3-fold increase, read-out: AK-based Prestwick Library Screening Results, E. faecium (increase in extracellular AK activity)
[5] = 50 μM final drug concentration, 384-well format, cutoff for positive-scoring molecules 3-fold increase, read-out: AK-based Prestwick Library Screening Results, A. baumannii (increase in extracellular AK activity)
[6] = 50 μM final drug concentration, 384-well format, cutoff for positive-scoring molecules 3-fold increase, read-out: AK-based Prestwick Library Screening Results, E. coli (increase in extracellular AK activity)
[7] = 50 μM final drug concentration, 384-well format, cutoff for positive-scoring molecules 3-fold increase, read-out: AK-based Prestwick Library Screening Results, E. cloacae (increase in extracellular AK activity)
[8] = 50 μM final drug concentration, 384-well format, cutoff for positive-scoring molecules 3-fold increase, read-out: AK-based Prestwick Library Screening Results, S. aureus (increase in extracellular AK activity)
[9] = 50 μM final drug concentration, 384-well format, cutoff for positive-scoring molecules 3-fold increase, read-out: AK-based Prestwick Library Screening Results, K. pneumoniae (increase in extracellular AK activity)
[10] = 50 μM final drug concentration, 384-well format, […]
[11] = 50 μM final drug concentration, 384-well format, cutoff for positive-scoring molecules 3-fold increase

SMILES: CC1(C)S[C@@H]2[C@H](NC(=O)[C@H](N)c3ccccc3)C(=O)N2[C@H]1C(=O)O [Ampicillin trihydrate]
- fold induction at 50 µM (P. aeruginosa; [3]): 0.7
- fold induction at 50 µM (E. faecium; [4]): 1.1
- fold induction at 50 µM [1, 5]: 1.6
- fold induction at 50 µM (E. coli; [6]): 12.2
- fold induction at 50 µM (E. cloacae; [7]): 3.5
- fold induction at 50 µM [2, 8]: 0.5
- fold induction at 50 µM (K. pneumoniae; [9]): 0.6

SMILES: CCCc1ncc(C[n+]2ccccc2C)c(N)n1 [Amprolium hydrochloride]
- fold induction at 50 µM (P. aeruginosa; [3]): 0.4
- fold induction at 50 µM (E. faecium; [4]): 0.9
- fold induction at 50 µM [1, 5]: 0.5
- fold induction at 50 µM (E. coli; [6]): 0.5
- fold induction at 50 µM (E. cloacae; [7]): 0.4
- fold induction at 50 µM [2, 8]: 0.5
- fold induction at 50 µM (K. pneumoniae; [9]): 0.6

SMILES: Cc1c(N)c(=O)n(-c2ccccc2)n1C [Ampyrone]
- fold induction at 50 µM (P. aeruginosa; [3]): 1
- fold induction at 50 µM (E. faecium; [4]): 1
- fold induction at 50 µM [1, 5]: 0.9
- fold induction at 50 µM (E. coli; [6]): 0.9
- fold induction at 50 µM (E. cloacae; [7]): 1
- fold induction at 50 µM [2, 8]: 0.8
- fold induction at 50 µM (K. pneumoniae; [9]): 0.7

SMILES: Nc1cc(-c2ccncc2)c[nH]c1=O [Amrinone]
- fold induction at 50 µM (P. aeruginosa; 50 μM final drug concentration, cutoff for positive-scoring molecules 3-fold increase, read-out: AK-based Prestwick Library Screening Results, P. aeruginosa (fold increase in extracellular AK activity)): 1
- fold induction at 50 µM (E. faecium; 50 μM final drug concentration, cutoff for positive-scoring molecules 3-fold increase, read-out: AK-based Prestwick Library Screening Results, E. faecium (fold increase in extracellular AK activity)): 1
- fold induction at 50 µM ([1]; 50 μM final drug concentration, cutoff for positive-scoring molecules 3-fold increase, read-out: AK-based Prestwick Library Screening Results, A. baumannii (fold increase in extracellular AK activity)): 1.2
- fold induction at 50 µM (E. coli; 50 μM final drug concentration, cutoff for positive-scoring molecules 3-fold increase, read-out: AK-based Prestwick Library Screening Results, E. coli (fold increase in extracellular AK activity)): 1.3
- fold induction at 50 µM (E. cloacae; 50 μM final drug concentration, cutoff for positive-scoring molecules 3-fold increase, read-out: AK-based Prestwick Library Screening Results, E. cloacae (fold increase in extracellular AK activity)): 44
- fold induction at 50 µM ([2]; 50 μM final drug concentration, cutoff for positive-scoring molecules 3-fold increase, read-out: AK-based Prestwick Library Screening Results, S. aureus (fold increase in extracellular AK activity)): 1.1
- fold induction at 50 µM (K. pneumoniae; 50 μM final drug concentration, cutoff for positive-scoring molecules 3-fold increase, read-out: AK-based Prestwick Library Screening Results, K. pneumoniae (fold increase in extracellular AK activity)): 1.1

SMILES: CCC(C)(CN(C)C)OC(=O)c1ccccc1.Cl (centres unmarked) [Amyleine hydrochloride]
- AK-based Prestwick Library Screening Results, P. aeruginosa (increase in extracellular AK activity) (P. aeruginosa; [10]): 0.9
- AK-based Prestwick Library Screening Results, E. faecium (increase in extracellular AK activity) (E. faecium; [10]): 1.1
- AK-based Prestwick Library Screening Results, A. baumannii (increase in extracellular AK activity) [1, 10]: 1.1
- AK-based Prestwick Library Screening Results, E. coli (increase in extracellular AK activity) (E. coli; [10]): 1.4
- AK-based Prestwick Library Screening Results, E. cloacae (increase in extracellular AK activity) (E. cloacae; [10]): 1.2
- AK-based Prestwick Library Screening Results, S. aureus (increase in extracellular AK activity) [2, 10]: 1.1
- AK-based Prestwick Library Screening Results, K. pneumoniae (increase in extracellular AK activity) (K. pneumoniae; [10]): 0.8

SMILES: c1cncc([C@@H]2CCCCN2)c1 [Anabasine]
- fold induction at 50 µM (P. aeruginosa; 50 μM final drug concentration, planktonic, […], read-out: AK-based Prestwick Library Screening Results, P. aeruginosa (fold increase in extracellular AK activity)): 0.9
- fold induction at 50 µM (E. faecium; 50 μM final drug concentration, planktonic, […], read-out: AK-based Prestwick Library Screening Results, E. faecium (fold increase in extracellular AK activity)): 0.9
- fold induction at 50 µM ([1]; 50 μM final drug concentration, planktonic, […], read-out: AK-based Prestwick Library Screening Results, A. baumannii (fold increase in extracellular AK activity)): 0.8
- fold induction at 50 µM (E. coli; 50 μM final drug concentration, planktonic, […], read-out: AK-based Prestwick Library Screening Results, E. coli (fold increase in extracellular AK activity)): 1
- fold induction at 50 µM (E. cloacae; 50 μM final drug concentration, planktonic, […], read-out: AK-based Prestwick Library Screening Results, E. cloacae (fold increase in extracellular AK activity)): 1
- fold induction at 50 µM ([2]; 50 μM final drug concentration, planktonic, […], read-out: AK-based Prestwick Library Screening Results, S. aureus (fold increase in extracellular AK activity)): 0.6
- fold induction at 50 µM (K. pneumoniae; 50 μM final drug concentration, planktonic, […], read-out: AK-based Prestwick Library Screening Results, K. pneumoniae (fold increase in extracellular AK activity)): 0.8

SMILES: C[C@]12CC[C@@H](O)C[C@@H]1CC[C@@H]1[C@@H]2CC[C@]2(C)C(=O)CC[C@@H]12 [Androsterone]
- fold induction at 50 µM (P. aeruginosa; read-out: AK-based Prestwick Library Screening Results, P. aeruginosa (increase in extracellular AK activity)): 0.6
- fold induction at 50 µM (E. faecium; read-out: AK-based Prestwick Library Screening Results, E. faecium (increase in extracellular AK activity)): 1
- fold induction at 50 µM ([1]; read-out: AK-based Prestwick Library Screening Results, A. baumannii (increase in extracellular AK activity)): 0.7
- fold induction at 50 µM (E. coli; read-out: AK-based Prestwick Library Screening Results, E. coli (increase in extracellular AK activity)): 0.6
- fold induction at 50 µM (E. cloacae; read-out: AK-based Prestwick Library Screening Results, E. cloacae (increase in extracellular AK activity)): 0.7
- fold induction at 50 µM ([2]; read-out: AK-based Prestwick Library Screening Results, S. aureus (increase in extracellular AK activity)): 0.5
- fold induction at 50 µM (K. pneumoniae; read-out: AK-based Prestwick Library Screening Results, K. pneumoniae (increase in extracellular AK activity)): 0.5

SMILES: COc1ccc(C[C@H]2NC[C@H](O)[C@H]2OC(C)=O)cc1 [Anisomycin]
- AK-based Prestwick Library Screening Results, P. aeruginosa (increase in extracellular AK activity) (P. aeruginosa; planktonic P. aeruginosa, 50 μM final drug concentration, […]): 0.7
- AK-based Prestwick Library Screening Results, E. faecium (increase in extracellular AK activity) (E. faecium; planktonic E. faecium, 50 μM final drug concentration, […]): 1.0
- AK-based Prestwick Library Screening Results, A. baumannii (increase in extracellular AK activity) ([1]; planktonic A. baumannii, 50 μM final drug concentration, […]): 0.7
- AK-based Prestwick Library Screening Results, E. coli (increase in extracellular AK activity) (E. coli; planktonic E. coli, 50 μM final drug concentration, […]): 0.7
- AK-based Prestwick Library Screening Results, E. cloacae (increase in extracellular AK activity) (E. cloacae; planktonic E. cloacae, 50 μM final drug concentration, […]): 0.7
- AK-based Prestwick Library Screening Results, S. aureus (increase in extracellular AK activity) ([2]; planktonic S. aureus, 50 μM final drug concentration, […]): 0.7
- AK-based Prestwick Library Screening Results, K. pneumoniae (increase in extracellular AK activity) (K. pneumoniae; planktonic K. pneumoniae, 50 μM final drug concentration, […]): 0.5

SMILES: c1ccc(CN(CC2=NCCN2)c2ccccc2)cc1 [Antazoline hydrochloride]
- fold induction at 50 µM (P. aeruginosa; [3]): 0.7
- fold induction at 50 µM (E. faecium; [4]): 1
- fold induction at 50 µM [1, 5]: 0.8
- fold induction at 50 µM (E. coli; [6]): 0.7
- fold induction at 50 µM (E. cloacae; [7]): 0.8
- fold induction at 50 µM [2, 8]: 0.8
- fold induction at 50 µM (K. pneumoniae; [9]): 0.6

SMILES: Cc1c(O)c(=O)n(-c2ccccc2)n1C [Antipyrine, 4-hydroxy]
- AK-based Prestwick Library Screening Results, P. aeruginosa (increase in extracellular AK activity) (P. aeruginosa; [11]): 0.8
- AK-based Prestwick Library Screening Results, E. faecium (increase in extracellular AK activity) (E. faecium; [11]): 1.0
- AK-based Prestwick Library Screening Results, A. baumannii (increase in extracellular AK activity) [1, 11]: 0.8
- AK-based Prestwick Library Screening Results, E. coli (increase in extracellular AK activity) (E. coli; [11]): 0.9
- AK-based Prestwick Library Screening Results, E. cloacae (increase in extracellular AK activity) (E. cloacae; [11]): 1.0
- AK-based Prestwick Library Screening Results, S. aureus (increase in extracellular AK activity) [2, 11]: 0.7
- AK-based Prestwick Library Screening Results, K. pneumoniae (increase in extracellular AK activity) (K. pneumoniae; [11]): 0.7

SMILES: Cc1cc(=O)n(-c2ccccc2)n1C [Antipyrine]
- fold induction at 50 µM (P. aeruginosa; 50 μM final drug concentration, 384-well format, […], read-out: AK-based Prestwick Library Screening Results, P. aeruginosa (increase in extracellular AK activity)): 0.8
- fold induction at 50 µM (E. faecium; 50 μM final drug concentration, 384-well format, […], read-out: AK-based Prestwick Library Screening Results, E. faecium (increase in extracellular AK activity)): 1
- fold induction at 50 µM ([1]; 50 μM final drug concentration, 384-well format, […], read-out: AK-based Prestwick Library Screening Results, A. baumannii (increase in extracellular AK activity)): 1
- fold induction at 50 µM (E. coli; [6]): 0.9
- fold induction at 50 µM (E. cloacae; 50 μM final drug concentration, 384-well format, […], read-out: AK-based Prestwick Library Screening Results, E. cloacae (increase in extracellular AK activity)): 1
- fold induction at 50 µM ([2]; 50 μM final drug concentration, 384-well format, […], read-out: AK-based Prestwick Library Screening Results, S. aureus (increase in extracellular AK activity)): 0.7
- fold induction at 50 µM (K. pneumoniae; 50 μM final drug concentration, 384-well format, […], read-out: AK-based Prestwick Library Screening Results, K. pneumoniae (increase in extracellular AK activity)): 0.7
